Data published in the NIST ThermoML archive (doi:10.1016/j.jct.2016.03.026).
“And” between values parts separate entries of the source, which are not always exact repeats. Equal values may be shown once.

Assay: xn = mol fraction of the nth substance listed
Conditions: Fluid (supercritical or subcritical phases); for speed of sound: Frequency=5 MHz, Pulse-echo method, x1 = 0.925; for mass density: 263.15 K, Vibrating tube method, x1 = 0.97

O=C=O [carbon dioxide] + CO
speed of sound
Conditions	263.13 K	263.14 K
7970 kPa	694.6 m/s and 693.1 m/s	694.8 m/s and 695.2 m/s
9960 kPa	–	715.4 m/s
9990 kPa	715.1 m/s	–
10000 kPa	714.3 m/s	–
10020 kPa	–	715.9 m/s
14940 kPa	760.5 m/s	–
14950 kPa	–	760.8 m/s
14960 kPa	759.3 m/s	–
14990 kPa	–	761 m/s
19990 kPa	799.6 m/s	801 m/s
20000 kPa	800.7 m/s	–
20020 kPa	–	800.7 m/s
24970 kPa	836 m/s	836.4 m/s
24980 kPa	835.1 m/s	–
24990 kPa	–	836.3 m/s
29960 kPa	867.4 m/s	868.8 m/s
29990 kPa	868.4 m/s	–
30000 kPa	–	868.9 m/s
34950 kPa	–	898.5 m/s
34980 kPa	–	898.5 m/s
34990 kPa	898.5 m/s	–
35000 kPa	897.7 m/s	–
39950 kPa	926.1 m/s	–
39970 kPa	925.5 m/s	–
39990 kPa	–	926.5 m/s and 926.8 m/s
44970 kPa	952.1 m/s	–
44980 kPa	951.6 m/s	–
45030 kPa	–	952.7 m/s
45040 kPa	–	952.8 m/s
49950 kPa	–	977.1 m/s
49960 kPa	–	977.1 m/s
49970 kPa	977 m/s and 976.2 m/s	–
54950 kPa	999.5 m/s	–
54980 kPa	–	1000.5 m/s
54990 kPa	1000.3 m/s	–
55010 kPa	–	1000.5 m/s
59950 kPa	1021.6 m/s	1022.5 m/s
59970 kPa	–	1022.9 m/s
59990 kPa	1022.6 m/s	–
64970 kPa	–	1043.9 m/s and 1044.2 m/s
64980 kPa	1043.7 m/s	–
65000 kPa	1043 m/s	–
69950 kPa	–	1064.3 m/s
69960 kPa	1063.9 m/s	–
69990 kPa	–	1064.1 m/s
70000 kPa	1063.4 m/s	–
74960 kPa	1083.5 m/s and 1082.7 m/s	–
74970 kPa	–	1083.7 m/s
74990 kPa	–	1084.1 m/s
79980 kPa	1101.6 m/s	–
79990 kPa	–	1102.8 m/s
80000 kPa	1102.6 m/s	1102.8 m/s
89950 kPa	–	1138.4 m/s
89990 kPa	1137.3 m/s	–
90000 kPa	1138.2 m/s	–
90020 kPa	–	1138.8 m/s
99980 kPa	–	1172.1 m/s
99990 kPa	1171.5 m/s	–
100000 kPa	1170.8 m/s	1171.8 m/s
109970 kPa	1202.4 m/s	–
109980 kPa	1203.2 m/s	1203.3 m/s
110000 kPa	–	1203.8 m/s
119950 kPa	1232.3 m/s	–
119980 kPa	1233.2 m/s	1233.5 m/s
120000 kPa	–	1233.4 m/s
129980 kPa	1261.7 m/s	–
129990 kPa	1260.9 m/s	–
130000 kPa	–	1262 m/s
130010 kPa	–	1262.1 m/s
139970 kPa	1288.8 m/s	–
139980 kPa	1288.1 m/s	1289.1 m/s
140010 kPa	–	1289.5 m/s
149950 kPa	1315 m/s	1315.1 m/s
149970 kPa	1314.1 m/s	–
150000 kPa	–	1315.4 m/s
159950 kPa	–	1340.4 m/s
159960 kPa	–	1340.2 m/s
159970 kPa	1340 m/s	–
159980 kPa	1339.2 m/s	–
169960 kPa	–	1364.5 m/s
169980 kPa	–	1364.2 m/s
170010 kPa	1364.1 m/s	–
170040 kPa	1363.4 m/s	–
179970 kPa	–	1388 m/s
179990 kPa	–	1387.5 m/s
180000 kPa	1386.5 m/s	–
180020 kPa	1387.5 m/s	–
190000 kPa	1409.9 m/s	1410.3 m/s
190010 kPa	1409 m/s	–
190020 kPa	–	1409.9 m/s

Conditions	mass density [kg/m3]
4000 kPa	989.7
4025 kPa	990.23
4050 kPa	990.17
4075 kPa	990.12
4100 kPa	990.09
4125 kPa	990.27
4150 kPa	990.42
4175 kPa	990.57
4200 kPa	990.66
4225 kPa	990.83
4250 kPa	990.91
4275 kPa	991.06
4300 kPa	991.18
4325 kPa	991.32
4350 kPa	991.48
4375 kPa	991.65
4400 kPa	991.73
4425 kPa	991.89
4450 kPa	992.03
4475 kPa	992.14
4500 kPa	992.26
4525 kPa	992.39
4550 kPa	992.55
4575 kPa	992.63
4600 kPa	992.8
4625 kPa	992.88
4650 kPa	993.04
4675 kPa	993.21
4700 kPa	993.29
4725 kPa	993.45
4750 kPa	993.53
4775 kPa	993.7
4800 kPa	993.78
4825 kPa	993.94
4850 kPa	994.11
4875 kPa	994.19
4900 kPa	994.35
4925 kPa	994.43
4950 kPa	994.6
4975 kPa	994.76
5000 kPa	994.84
5025 kPa	995.01
5050 kPa	995.09
5075 kPa	995.25
5100 kPa	995.34
5125 kPa	995.5
5150 kPa	995.58
5175 kPa	995.74
5200 kPa	995.91
5225 kPa	995.99
5250 kPa	996.15
5275 kPa	996.24
5300 kPa	996.4
5325 kPa	996.48
5350 kPa	996.65
5375 kPa	996.73
5400 kPa	996.89
5425 kPa	996.97
5450 kPa	997.14
5475 kPa	997.22
5500 kPa	997.38
5525 kPa	997.46
5550 kPa	997.63
5575 kPa	997.71
5600 kPa	997.87
5625 kPa	997.96
5650 kPa	998.12
5675 kPa	998.2
5700 kPa	998.37
5725 kPa	998.52
5750 kPa	998.61
5775 kPa	998.69
5800 kPa	998.86
5825 kPa	998.94
5850 kPa	999.1
5875 kPa	999.18
5900 kPa	999.35
5925 kPa	999.43
5950 kPa	999.59
5975 kPa	999.68
6000 kPa	999.84
6025 kPa	999.92
6050 kPa	1000.09
6075 kPa	1000.17
6100 kPa	1000.33
6125 kPa	1000.41
6150 kPa	1000.58
6175 kPa	1000.66
6200 kPa	1000.79
6225 kPa	1000.9
6250 kPa	1000.98
6275 kPa	1001.15
6300 kPa	1001.23
6325 kPa	1001.39
6350 kPa	1001.48
6375 kPa	1001.64
6400 kPa	1001.72
6425 kPa	1001.82
6450 kPa	1001.97
6475 kPa	1002.05
6500 kPa	1002.21
6525 kPa	1002.29
6550 kPa	1002.46
6575 kPa	1002.54
6600 kPa	1002.7
6625 kPa	1002.79
6650 kPa	1002.95
6675 kPa	1003.03
6700 kPa	1003.2
6725 kPa	1003.28
6750 kPa	1003.36
6775 kPa	1003.52
6800 kPa	1003.6
6825 kPa	1003.77
6850 kPa	1003.85
6875 kPa	1004.01
6900 kPa	1004.09
6925 kPa	1004.25
6950 kPa	1004.34
6975 kPa	1004.42
7000 kPa	1004.59
7025 kPa	1004.67
7050 kPa	1004.82
7075 kPa	1004.91
7100 kPa	1004.99
7125 kPa	1005.16
7150 kPa	1005.24
7175 kPa	1005.38
7200 kPa	1005.49
7225 kPa	1005.57
7250 kPa	1005.73
7275 kPa	1005.81
7300 kPa	1005.9
7325 kPa	1006.06
7350 kPa	1006.14
7375 kPa	1006.29
7400 kPa	1006.39
7425 kPa	1006.47
7450 kPa	1006.63
7475 kPa	1006.71
7500 kPa	1006.79
